The values that follow come from patent US9512114B2, “Substituted aminopyrimidine compounds and methods of use” (Calitor Sciences, LLC, priority 2013, dated 2016).

Data set [1] can be described thus: Pharmacokinetic profiles in rats. It counts as in vivo, rat. Particulars: for Cl/F / AUC(0-t) / half-life / Vd: iv dosing 1 mg/kg; for F: oral vs iv (iv 1 mg/kg; p.o. generally 5 or 10 mg/kg); for AUC(0-t) / half-life / Vd: rat, plasma; for Vd: read-out: Vss. Here is the method: The compounds disclosed herein are assessed in pharmacokinetic studies in mice, rats, dogs or monkeys. The compounds are administered as a water solution, 2% HPMC+1% TWEEN®80 in water solution, 5% DMSO+5% solutol in saline, 4% MC suspension or capsule. For the intravenous administration, the animals are generally given at 1 or 2 mg/kg dose. For the oral (p.o.) dosing, mice and rats are generally given 5 or 10 mg/kg dose, and dogs and monkeys are generally given 10 mg/kg dose. The blood samples (0.3 mL) are drawn at 0.25, 0.5, 1.0, 2.0, 3.0, 4.0, 6.0, 8.0, 12 and 24 h time points or 0.083, 0.25, 0.5, 1.0, 2.0, 4.0, 6.0, 8.0 and 24 h time points and centrifuged at 3,000 or 4000 rpm for 2 to 10 min. The plasma solutions are collected, stored at −20° C. or −70° C. until analyzed by LC/MS/MS as described above.

Data set [2] in a line: Compound stability in human liver microsomes. In kind it is in vitro ADME. Particulars: pH 7.4; for CLint scaled at 5 μM: liver microsomes, in vivo CLint extrapolated from human liver microsome incubation; for half-life at 5 μM: human liver microsomes 0.5 mg protein/mL, compound 5 μM, NADPH 1.0 mM, 37° C., read-out: Human T1/2. Here is the method:
(§1) The LC/MS/MS system used in the analysis consists of an Agilent 1200 Series vacuum degasser, binary pump, well-plate autosampler, thermostatted column compartment, the Agilent G6430 Triple Quadrupole Mass Spectrometer with an electrosprayionization (ESI) source. Quantitative analysis was carried out using MRM mode. The parameters for MRM transitions are in the Table A.
(§2) An Agilent XDB-C18, 2.1×30 mm, […] column was used for the analysis. 5 μL of the samples were injected. Analysis condition: The mobile phase was 0.1% formic acid in water (A) and 0.1% formic acid in methanol (B). The flow rate was 0.4 mL/min. And the gradient of Mobile phase was in the Table B.
(§3) Alternatively, an Agilent 6330 series LC/MS/MS spectrometer equipped with G1312A binary pumps, a G1367A autosampler and a G1314C UV detector were used in the analysis. An ESI source was used on the LC/MS/MS spectrometer. The analysis was done in positive ion mode as appropriate and the MRM transition for each analyte was optimized using standard solution. A Capcell MP-C18 100×4.6 mm I.D., […] column (Phenomenex, Torrance, Calif., USA) was used during the analysis. The mobile phase was 5 mM ammonia acetate, 0.1% MeOH in water (A): 5 mM ammonia acetate, 0.1% MeOH in acetonitrile (B) (70:30, v/v). The flow rate was 0.6 mL/min. Column was maintained at ambient temperature. 20 μL of the samples were injected.
(§4) Human or rat liver microsomes incubations were conducted in duplicate in polypropylene tubes. The typical incubation mixtures consisted of human or rat liver microsomes (0.5 mg protein/mL), compounds of interest (5 μM) and NADPH (1.0 mM) in a total volume of 200 μL potassium phosphate buffer (PBS, 100 mM, pH 7.4). Compounds were dissolved in DMSO and diluted with PBS such that the final concentration of DMSO was 0.05%. The enzymatic reactions were commenced with the addition of protein after a 3-min preincubation and incubated in a water bath open to the air at 37° C. Reactions were terminated at various time points (0, 5, 10, 15, 30, 60 min) by adding equal volume of ice-cold acetonitrile. The samples were stored at −80° C. until LC/MS/MS assays.
(§5) The concentrations of compounds in the incubation mixtures of human or rat liver microsomes were determined by a LC/MS/MS method. The ranges of the linearity in the concentration range were determined for each tested compounds.
(§6) A parallel incubation was performed using denatured microsomes as the negative control, and reactions were terminated at various time points (0, 15, 60 min) after incubation at 37° C.
(§7) Dextromethorphan (70 μM) was selected as the positive control, and reactions were terminated at various time points (0, 5, 10, 15, 30, 60 min) after incubation at 37° C. Both positive and negative control samples were included in each assay to ensure the integrity of the microsomal incubation system.
(§8) The concentrations of compounds in human or rat liver microsome incubations were plotted as a percentage of the relevant zero time point control for each reaction. The in vivo CLint were extrapolated (ref.: Naritomi, Y.; Terashita, S.; Kimura, S.; Suzuki, A.; Kagayama, A.; and Sugiyama, Y.; Prediction of human hepatic clearance from in vivo animal experiments and in vitro metabolic studies with liver microsomes from animals and humans. Drug Metab. Dispos., 2001, 29: 1316-1324).

Data set [3] is described as follows: Compound stability in rat liver microsomes. It counts as in vitro ADME. Particulars: pH 7.4; for CLint scaled at 5 μM: liver microsomes, in vivo CLint extrapolated from rat liver microsome incubation; for half-life at 5 μM: rat liver microsomes 0.5 mg protein/mL, compound 5 μM, NADPH 1.0 mM, 37° C., read-out: Rat T1/2. As for the experimental part:
as §1, §2, §3, §4, §5, §6, §7, §8

The structures appear in SMILES notation.

For `CC[C@H](Nc1ncnc(N)c1-c1nc(C)no1)c1cc2cccc(Cl)c2c(=O)n1-c1ccccc1` [Ex. 3, (S)-3-(1-((6-amino-5-(3-methyl-1,2,4-oxadiazol-5-yl)pyrimidin-4-yl)amino)propyl)-8-chloro-2-phenylisoquinolin-1(2H)-one], in data set [1], the Cl/F worked out at 128 mL/min/kg, the F was found to be 12.71%, the AUC(0-t) came out at 131 ng·h/mL and the half-life was 44.4 min. Further, the Vd in data set [1] came to 4.96 L/kg. In data set [2], the CLint scaled at 5 μM was 134 mL/min/kg and the half-life at 5 μM is 12.9 min. Further, in data set [3], the CLint scaled at 5 μM was 148 mL/min/kg and the half-life at 5 μM is 16.7 min.
Take `CC[C@H](Nc1ncnc(N)c1-c1nnc(C)o1)c1cc2cccc(C)c2c(=O)n1C1CC1` [Ex. 6, (S)-3-(1-((6-amino-5-(5-methyl-1,3,4-oxadiazol-2-yl)pyrimidin-4-yl)amino)propyl)-2-cyclopropyl-8-methylisoquinolin-1(2H)-one]: in data set [1], the Cl/F was found to be 62.3 mL/min/kg, the F turned out to be 48.66%, the AUC(0-t) was determined as 266 ng·h/mL and the half-life is 51.6 min. For the same molecule, in data set [1], the Vd was 4.08 L/kg. For the same molecule, in data set [2], the CLint scaled at 5 μM was 93.1 mL/min/kg and the half-life at 5 μM was 18.7 min. Moreover, in data set [3], the CLint scaled at 5 μM is 324 mL/min/kg and the half-life at 5 μM is 7.66 min.
Regarding `CC[C@H](Nc1ncnc(N)c1-c1nnc(C)o1)c1cc2cccc(Cl)c2c(=O)n1C1CC1` [Ex. 10, S)-3-(1-((6-amino-5-(5-methyl-1,3,4-oxadiazol-2-yl)pyrimidin-4-yl)aminopropyl)-8-chloro-2-cyclopropylisoquinolin-1(2H)-one], in data set [1], the Cl/F is 50 mL/min/kg, the F is given as 81.33%, the AUC(0-t) stood at 333 ng·h/mL and the half-life was 86.4 min. In addition, the Vd in data set [1] worked out at 5.35 L/kg. Besides, in data set [2], the CLint scaled at 5 μM is 86.9 mL/min/kg and the half-life at 5 μM is 20 min. Besides, in data set [3], the CLint scaled at 5 μM was 169 mL/min/kg and the half-life at 5 μM came out at 14.7 min.
As to `CC[C@H](Nc1ncnc(N)c1-c1nnn(C)n1)c1cc2cccc(Cl)c2c(=O)n1C1CC1` [Ex. 13, (S)-3-(1-((6-amino-5-(2-methyl-2H-tetrazol-5-yl)pyrimidin-4-yl)amino)propyl)-8-chloro-2-cyclopropylisoquinolin-1(2H)-one], in data set [1], the Cl/F was 36.2 mL/min/kg, the F stood at 67.9%, the AUC(0-t) turned out to be 465 ng·h/mL and the half-life was 99.6 min. Besides, the Vd in data set [1] is 4.42 L/kg. In data set [2], the CLint scaled at 5 μM was 157 mL/min/kg and the half-life at 5 μM was found to be 11.1 min. In addition, in data set [3], the CLint scaled at 5 μM is 137 mL/min/kg and the half-life at 5 μM stood at 18.2 min.
For the molecule `CCCCOC(=O)c1nc(-c2c(N)ncnc2N[C@@H](CC)c2cc3cccc(Cl)c3c(=O)n2C2CC2)nn1C` [Ex. 14, (S)-butyl 3-(4-amino-6-((1-(8-chloro-2-cyclopropyl-1-oxo-1,2-dihydro-isoquinolin-3-yl)propyl)amino)pyrimidin-5-yl)-1-methyl-1H-1,2,4-triazole-5-carboxylate], in data set [2], the CLint scaled at 5 μM is 225 mL/min/kg and the half-life at 5 μM is 7.73 min. Further, in data set [3], the CLint scaled at 5 μM is 125 mL/min/kg and the half-life at 5 μM turned out to be 19.9 min.
In data set [1], `C[C@H](Nc1ncnc(N)c1-c1nnn(C)n1)c1cc2cccc(Cl)c2c(=O)n1-c1ccccc1` [Ex. 15, (S)-3-(1-((6-amino-5-(2-methyl-2H-tetrazol-5-yl)pyrimidin-4-yl)amino)ethyl)-8-chloro-2-phenylisoquinolin-1(2H)-one] had a Cl/F of 22.7 mL/min/kg, an F of 48.92%, an AUC(0-t) of 758 ng·h/mL and a half-life of 51.6 min. Besides, the Vd in data set [1] came to 0.92 L/kg. Further, in data set [2], the CLint scaled at 5 μM is 287 mL/min/kg and the half-life at 5 μM is 6.06 min. In data set [3], the CLint scaled at 5 μM is 99.9 mL/min/kg and the half-life at 5 μM came out at 24.9 min.
As to `CC[C@H](Nc1ncnc(N)c1-c1ncn(C)n1)c1cc2cccc(Cl)c2c(=O)n1C1CC1` [Ex. 20, (S)-3-(1-((6-amino-5-(1-methyl-1H-1,2,4-triazol-3-yl)pyrimidin-4-yl)amino)propyl)-8-chloro-2-cyclopropylisoquinolin-1(2H)-one], in data set [1], the Cl/F came to 48.7 mL/min/kg, the F came to 64.61%, the AUC(0-t) was 341 ng·h/mL and the half-life was 48.6 min. Moreover, in data set [1], the Vd was determined as 2.65 L/kg. Also, in data set [2], the CLint scaled at 5 μM was 251 mL/min/kg and the half-life at 5 μM worked out at 6.93 min. In data set [3], the CLint scaled at 5 μM was 100 mL/min/kg and the half-life at 5 μM was 24.9 min.
Take `CC[C@H](Nc1ncnc(N)c1-c1noc(C)n1)c1cc2cccc(Cl)c2c(=O)n1C1CC1` [Ex. 21, (S)-3-(1-((6-amino-5-(5-methyl-1,2,4-oxadiazol-3-yl)pyrimidin-4-yl)amino)propyl)-8-chloro-2-cyclopropylisoquinolin-1(2H)-one]: in data set [2], the CLint scaled at 5 μM is 258 mL/min/kg and the half-life at 5 μM turned out to be 6.73 min. Besides, in data set [3], the CLint scaled at 5 μM is 130 mL/min/kg and the half-life at 5 μM came out at 19.2 min.
In the case of `Cc1noc(-c2c(N)ncnc2N[C@@H](C)c2cc3cccc(Cl)c3c(=O)n2-c2cccc(F)c2)n1` [Ex. 23, (S)-3-(1-((6-amino-5-(3-methyl-1,2,4-oxadiazol-5-yl)pyrimidin-4-yl)amino)ethyl)-8-chloro-2-(3-fluorophenyl)isoquinolin-1(2H)-one], the results for the CLint scaled at 5 μM in data set [2] and in data set [3] were 479 mL/min/kg and 456 mL/min/kg, respectively. Also, the values for the half-life at 5 μM in data set [2] and in data set [3] were 3.63 min and 5.45 min, respectively.
As for `C[C@H](Nc1ncnc(N)c1-c1nnn(C)n1)c1cc2cccc(-c3cnn(C)c3)c2c(=O)n1-c1ccccc1` [Ex. 29, (S)-3-(1-((6-amino-5-(2-methyl-2H-tetrazol-5-yl)pyrimidin-4-yl)amino)ethyl)-8-(1-methyl-1H-pyrazol-4-yl)-2-phenylisoquinolin-1(2H)-one], in data set [1], the Cl/F is 10 mL/min/kg, the F was found to be 80.6%, the AUC(0-t) worked out at 1780 ng·h/mL and the half-life was 78 min. Moreover, the Vd in data set [1] is 0.88 L/kg. In data set [2], the CLint scaled at 5 μM was 19 mL/min/kg and the half-life at 5 μM was determined as 91.5 min. In data set [3], the CLint scaled at 5 μM was 38.3 mL/min/kg and the half-life at 5 μM was 64.9 min.

Usually AUC(0-t) stands for the area under the concentration-time curve up to a stated or last time point. A higher AUC(0-t) goes with high exposure. What is called CLint scaled is the rate of metabolic loss divided by the concentration.
